Where two headings read alike, the source gives them in different places.
Experiments:
Assay type in all cases: in vitro ADME
CYP2C9 = CYP2C9 (Homo sapiens, UniProt P11712); experiment: CYP inhibition in human liver microsomes (Eurofins protocol ITEMG232); set-up: using isoform-specific substrates incubated with human liver microsomes; tissue Eurofins ITEMG232; host or cells: human liver microsomes; details: substrate diclofenac; for CYP2C9 Inh %: 10 μM; for inhibition at 10 µM: probe diclofenac, read-out: CYP2C9 Inh %
Description: (§1) The following substrates were used; CYP1A phenacetin, CYP2B6 bupropion, CYP2C8 paclitaxel and amodiaquine, CYP2C9 diclofenac, CYP2C19 omeprazole, CYP2D6 dextromethorphan, CYP3A midazolam and testosterone.
(§2) At the end of the incubation, the formation of metabolite was monitored by HPLC-MS/MS as the peak area response.

CYP3A4 = CYP3A4 (Homo sapiens, UniProt P08684); experiment: CYP inhibition in human liver microsomes (Eurofins protocol ITEMG232), midazolam substrate; set-up: using isoform-specific substrates incubated with human liver microsomes; tissue Eurofins ITEMG232; host or cells: human liver microsomes; details: for CYP3A4 midazolam Inh %: 10 μM; for inhibition at 10 µM: probe midazolam, read-out: CYP3A4 midazolam Inh %
Description: as §1, §2

CYP2B6 = target: T1, CYP2B6 (Homo sapiens, UniProt P20813); experiment: CYP inhibition in human liver microsomes (Eurofins protocol ITEMG232); details: substrate bupropion; for CYP2B6 Inh %: 10 μM; for inhibition at 10 µM: probe bupropion, read-out: CYP2B6 Inh %
T1 construct: using isoform-specific substrates incubated with human liver microsomes; tissue Eurofins ITEMG232; host or cells: human liver microsomes
T1 sequence (P20813 1-491): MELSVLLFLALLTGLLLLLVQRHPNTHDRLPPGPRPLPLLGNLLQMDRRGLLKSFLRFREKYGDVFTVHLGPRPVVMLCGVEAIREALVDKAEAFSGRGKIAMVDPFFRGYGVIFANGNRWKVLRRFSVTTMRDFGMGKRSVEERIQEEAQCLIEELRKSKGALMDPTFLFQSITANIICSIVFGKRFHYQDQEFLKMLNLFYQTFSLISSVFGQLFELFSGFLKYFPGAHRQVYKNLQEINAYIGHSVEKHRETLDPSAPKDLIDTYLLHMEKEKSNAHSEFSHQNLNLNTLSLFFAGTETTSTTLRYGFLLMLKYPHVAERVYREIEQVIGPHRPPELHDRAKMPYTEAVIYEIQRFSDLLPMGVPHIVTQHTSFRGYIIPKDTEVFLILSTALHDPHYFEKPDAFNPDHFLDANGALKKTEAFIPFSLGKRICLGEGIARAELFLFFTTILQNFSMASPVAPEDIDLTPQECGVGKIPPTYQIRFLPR
Description: as §1, §2

CYP1A = target: T2, CYP1A (Homo sapiens, UniProt P05177); experiment: as above; details: substrate phenacetin; for CYP1A Inh %: 10 μM; for inhibition at 10 µM: probe phenacetin, read-out: CYP1A Inh %
T2 construct: using isoform-specific substrates incubated with human liver microsomes; tissue Eurofins ITEMG232; host or cells: human liver microsomes
T2 sequence (P05177 2-516 limits assumed): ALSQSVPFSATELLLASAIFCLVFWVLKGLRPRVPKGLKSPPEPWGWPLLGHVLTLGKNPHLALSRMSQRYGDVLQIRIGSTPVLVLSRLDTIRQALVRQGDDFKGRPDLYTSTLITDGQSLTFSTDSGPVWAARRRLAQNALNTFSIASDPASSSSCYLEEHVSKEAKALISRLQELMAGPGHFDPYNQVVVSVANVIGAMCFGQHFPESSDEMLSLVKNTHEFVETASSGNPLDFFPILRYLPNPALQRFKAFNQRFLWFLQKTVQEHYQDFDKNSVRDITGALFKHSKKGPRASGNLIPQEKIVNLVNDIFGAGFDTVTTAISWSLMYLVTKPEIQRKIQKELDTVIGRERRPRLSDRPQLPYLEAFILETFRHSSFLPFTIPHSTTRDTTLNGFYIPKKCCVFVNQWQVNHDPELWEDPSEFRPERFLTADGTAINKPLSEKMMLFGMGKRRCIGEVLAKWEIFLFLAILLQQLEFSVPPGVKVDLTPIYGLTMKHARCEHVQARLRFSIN
Description: as §1, §2

CYP2D6 = target: T3, CYP2D6 (Homo sapiens, UniProt P10635); experiment: as above; details: substrate dextromethorphan; for CYP2D6 Inh %: 10 μM; for inhibition at 10 µM: probe dextromethorphan, read-out: CYP2D6 Inh %
T3 construct: tissue Eurofins ITEMG232; host or cells: human liver microsomes
Description: as §1, §2

CYP2C19 = target: T4, CYP2C19 (Homo sapiens, UniProt P33261); experiment: as above; details: substrate omeprazole; for CYP2C19 Inh %: 10 μM; for inhibition at 10 µM: probe omeprazole, read-out: CYP2C19 Inh %
T4 construct: using isoform-specific substrates incubated with human liver microsomes; tissue Eurofins ITEMG232; host or cells: human liver microsomes
Description: as §1, §2

CYP2C8 = target: T5, CYP2C8 (Homo sapiens, UniProt P10632); experiment: as above; details: substrates paclitaxel and amodiaquine; for CYP2C8 Inh %: 10 μM; for inhibition at 10 µM: probe paclitaxel and amodiaquine, read-out: CYP2C8 Inh %
T5 construct: using isoform-specific substrates incubated with human liver microsomes; tissue Eurofins ITEMG232; host or cells: human liver microsomes
T5 sequence (P10632 1-490): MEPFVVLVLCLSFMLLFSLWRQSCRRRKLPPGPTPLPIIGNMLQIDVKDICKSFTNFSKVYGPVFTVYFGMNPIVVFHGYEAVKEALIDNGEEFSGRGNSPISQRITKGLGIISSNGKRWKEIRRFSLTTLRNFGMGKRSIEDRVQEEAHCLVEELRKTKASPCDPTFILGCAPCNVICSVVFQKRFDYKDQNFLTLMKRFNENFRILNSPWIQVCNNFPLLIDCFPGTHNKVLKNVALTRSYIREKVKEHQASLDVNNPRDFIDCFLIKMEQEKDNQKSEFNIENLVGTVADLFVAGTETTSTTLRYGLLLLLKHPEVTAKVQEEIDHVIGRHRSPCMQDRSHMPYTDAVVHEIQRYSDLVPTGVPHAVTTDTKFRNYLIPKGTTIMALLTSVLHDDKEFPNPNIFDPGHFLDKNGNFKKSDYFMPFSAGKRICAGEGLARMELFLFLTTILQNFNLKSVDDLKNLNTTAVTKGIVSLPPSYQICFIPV
Description: as §1, §2

CYP3A4&5 = experiment: CYP inhibition in human liver microsomes (Eurofins protocol ITEMG232), testosterone substrate; details: for CYP3A4&5 testosterone Inh %: 10 μM; for inhibition at 10 µM: probe testosterone, read-out: CYP3A4&5 testosterone Inh %
Description: as §1, §2

[1] = Metabolic stability in pooled human liver microsomes with or without NADPH; details: pooled human liver microsomes 0.5 mg/mL in PBS, 1 uM test compound, 37° C.; for half-life at 1 uM: human, pooled human liver microsomes
Description: Pooled human liver microsomes in PBS at a concentration of 0.5 mg/mL was incubated with or without 1 mM NADPH for 70 min at 37° C. Test compound was added after 10 minutes to a final concentration of 1 uM. Samples were withdrawn at 0, 5, 15 and 60 minutes and added to test tubes containing acetonitrile, to stop the reaction, and with terfenadine, used as internal standard. After centrifugation at 10000×g for 5 minutes the supernatant was diluted 1:1 with 1% formic acid. Samples were separated on a reverse phase column and detected by triple quadrupole MSMS (Agilant model 6540). The concentration of the parent compound at the different time points was measured with an external standard curve using terfenadine as internal standard and the initial metabolic rate in the presence or absence of NADPH calculated.

[2] = with 1 mM NADPH, read-out: T1/2, +NaDPH
[3] = without NADPH, read-out: T1/2, no NaDPH

T4 sequence (P33261 whole entry, canonical isoform): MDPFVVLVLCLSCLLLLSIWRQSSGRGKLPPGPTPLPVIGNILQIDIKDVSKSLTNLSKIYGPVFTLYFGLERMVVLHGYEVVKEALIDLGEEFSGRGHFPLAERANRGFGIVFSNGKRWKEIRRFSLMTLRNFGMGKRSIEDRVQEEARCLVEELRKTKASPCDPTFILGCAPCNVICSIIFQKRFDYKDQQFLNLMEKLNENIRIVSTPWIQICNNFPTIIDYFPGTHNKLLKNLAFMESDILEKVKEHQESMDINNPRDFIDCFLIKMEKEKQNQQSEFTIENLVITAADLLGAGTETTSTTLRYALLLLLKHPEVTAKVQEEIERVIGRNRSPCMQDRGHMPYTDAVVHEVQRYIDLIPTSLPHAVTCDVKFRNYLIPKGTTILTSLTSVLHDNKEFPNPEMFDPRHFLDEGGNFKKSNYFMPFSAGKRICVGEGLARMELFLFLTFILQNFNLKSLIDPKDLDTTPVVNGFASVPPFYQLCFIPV
Chain of CYP2C9 (P11712 whole entry, canonical isoform): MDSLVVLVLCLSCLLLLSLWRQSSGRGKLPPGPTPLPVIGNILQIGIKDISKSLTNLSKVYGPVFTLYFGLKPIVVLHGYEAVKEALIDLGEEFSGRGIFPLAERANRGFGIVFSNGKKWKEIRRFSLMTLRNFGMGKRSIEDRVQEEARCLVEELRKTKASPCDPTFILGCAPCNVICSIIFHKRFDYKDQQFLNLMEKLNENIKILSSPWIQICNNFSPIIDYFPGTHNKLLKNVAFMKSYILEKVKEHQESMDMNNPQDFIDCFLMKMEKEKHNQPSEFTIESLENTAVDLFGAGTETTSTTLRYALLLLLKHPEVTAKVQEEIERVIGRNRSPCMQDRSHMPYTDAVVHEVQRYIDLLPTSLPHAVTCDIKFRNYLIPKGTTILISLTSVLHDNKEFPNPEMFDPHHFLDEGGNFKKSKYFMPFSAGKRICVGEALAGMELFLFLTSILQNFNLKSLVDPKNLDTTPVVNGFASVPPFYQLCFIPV
T3 sequence (P10635 whole entry): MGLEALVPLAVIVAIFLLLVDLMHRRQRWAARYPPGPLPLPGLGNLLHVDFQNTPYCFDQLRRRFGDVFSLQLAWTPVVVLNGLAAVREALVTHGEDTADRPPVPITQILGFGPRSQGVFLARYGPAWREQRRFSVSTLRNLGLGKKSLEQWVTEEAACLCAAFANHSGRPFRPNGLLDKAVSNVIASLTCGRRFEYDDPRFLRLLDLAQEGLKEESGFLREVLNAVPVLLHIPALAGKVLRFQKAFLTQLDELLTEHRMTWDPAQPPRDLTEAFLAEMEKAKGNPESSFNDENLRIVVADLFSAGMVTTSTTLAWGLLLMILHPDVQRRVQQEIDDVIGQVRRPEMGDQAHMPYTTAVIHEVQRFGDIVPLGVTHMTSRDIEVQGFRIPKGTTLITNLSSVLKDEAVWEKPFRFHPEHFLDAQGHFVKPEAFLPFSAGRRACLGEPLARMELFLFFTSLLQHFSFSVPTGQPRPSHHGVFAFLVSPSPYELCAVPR
Chain of CYP3A4 (P08684 whole entry, canonical isoform): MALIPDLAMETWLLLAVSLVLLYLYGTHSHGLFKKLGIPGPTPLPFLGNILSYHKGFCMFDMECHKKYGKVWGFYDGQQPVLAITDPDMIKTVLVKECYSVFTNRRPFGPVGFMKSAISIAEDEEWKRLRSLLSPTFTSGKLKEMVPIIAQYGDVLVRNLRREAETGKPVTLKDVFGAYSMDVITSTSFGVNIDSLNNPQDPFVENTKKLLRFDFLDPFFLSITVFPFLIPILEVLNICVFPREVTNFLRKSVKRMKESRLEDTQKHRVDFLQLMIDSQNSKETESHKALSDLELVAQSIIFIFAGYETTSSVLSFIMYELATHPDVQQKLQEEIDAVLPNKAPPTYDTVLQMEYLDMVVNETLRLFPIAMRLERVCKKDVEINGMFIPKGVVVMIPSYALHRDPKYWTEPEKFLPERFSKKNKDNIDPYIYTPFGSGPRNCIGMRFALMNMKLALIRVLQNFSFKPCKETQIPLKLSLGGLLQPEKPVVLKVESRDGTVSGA

inhibition at 10 µM (CYP2C9) [%] | inhibition at 10 µM (CYP3A4) [%] | inhibition at 10 µM (CYP2B6) [%] | inhibition at 10 µM (CYP1A) [%] | inhibition at 10 µM (CYP2D6) [%] | inhibition at 10 µM (CYP2C19) [%] | inhibition at 10 µM (CYP2C8) [%] | inhibition at 10 µM (CYP3A4&5) [%] | half-life at 1 uM [1, 2] [min] | half-life at 1 uM [1, 3] [min] | SMILES | CYP2C9 Inh % (CYP2C9) [%] | CYP3A4 midazolam Inh % (CYP3A4) [%] | CYP2B6 Inh % (CYP2B6) [%] | CYP1A Inh % (CYP1A) [%] | CYP2D6 Inh % (CYP2D6) [%] | CYP2C19 Inh % (CYP2C19) [%] | CYP2C8 Inh % (CYP2C8) [%] | CYP3A4&5 testosterone Inh % (CYP3A4&5) [%] | T1/2, +NaDPH ([1]; with 1 mM NADPH) [min] | T1/2, no NaDPH ([1]; without NADPH) [min]
– | – | – | – | – | – | – | – | – | – | CCOC(=O)NS(=O)(=O)c1sc(CC(C)C)cc1-c1ccc(Cn2ccnc2C)c(F)c1.O=C(O)C(F)(F)F [Example 1, Ethyl (3-(3-fluoro-4-((2-methyl-1H-imidazol-1-yl)methyl)phenyl)-5-isobutylthiophen-2-yl)sulfonvicarbamate trifluoroacetic acid] | 64 | −42 | 39 | 37 | 45 | 37 | 37 | −2 | 50 | 60
– | – | – | – | – | – | – | – | – | – | COCCOC(=O)NS(=O)(=O)c1sc(CC(C)C)cc1-c1ccc(Cn2ccnc2C)c(F)c1.O=C(O)C(F)(F)F [Example 3] | 58 | −52 | 36 | −13 | 44 | 39 | 26 | −20 | >60 | >60
– | – | – | – | – | – | – | – | – | – | CCc1nccn1Cc1ccc(-c2cc(CC(C)C)sc2S(=O)(=O)NC(=O)OCc2ccc(F)cc2)cc1F.O=C(O)C(F)(F)F [Example 6, 4-Fluorobenzyl (3-(4((2-ethyl-1H-imidazol-1-yl)methyl)-3-fluorophenyl)-5-isobutylthio-phen-2-yl)sulfonylcarbamate trifluoroacetic acid] | 72 | −39 | 30 | 35 | 50 | 52 | 55 | 13 | 7 | 50
– | – | – | – | – | – | – | – | – | – | CCOC(=O)NS(=O)(=O)c1sc(CC(C)C)cc1-c1ccc(Cn2ccnc2CC)c(F)c1.O=C(O)C(F)(F)F [Example 7, Ethyl (3-(4-((2-ethyl-1H-imidazol-1-yl)methyl)-3-fluorophenyl)-5-isobutylthiophen-2-30 yl)sulfonylcarbamate trifluoroacetic acid] | 64 | −31 | 26 | 21 | 39 | 41 | 66 | 18 | 40 | 40
– | – | – | – | – | – | – | – | – | – | CCOC(=O)NS(=O)(=O)c1sc(CC(C)C)cc1-c1ccc(Cn2ccnc2C(C)C)c(F)c1.O=C(O)C(F)(F)F [Example 8, Ethyl (3-(3-fluoro-4-((2-isopropyl-1H-imidazol-1-yl)methyl)phenyl)-5-isobutylthio-phen-2-yl)sulfonylcarbamate trifluoroacetic acid] | 58 | −52 | 36 | −13 | 44 | 39 | 26 | −20 | 46 | 53
– | – | – | – | – | – | – | – | – | – | Cc1nccn1Cc1c(F)cc(-c2cc(CC(C)C)sc2S(=O)(=O)NC(=O)OCCO)cc1F [Example 18, 2-Hydroxyethyl (3-(3,5-difluoro-4-((2-methyl-1H-imidazol-1-yl)methyl)phenv1)-5-isobutylthiophen-2-yl)sulfonylcarbamate] | 77.0 | −35.6 | 33.3 | 15.2 | 48.8 | 5.9 | 56.1 | 1.7 | 4 | >60
62.3 | 43.4 | 26.9 | 84.3 | 31.3 | 54.1 | 83.2 | 20.7 | 1 | 12 | Cc1nccn1Cc1ccc(-c2cc(CC(C)C)sc2S(=O)(=O)NC(=O)OCCOC(=O)C(C)(C)C)cc1F [Example 19, 2-((((3-(3-Fluoro-4-((2-methyl-1H-imidazol-1-yl)methyl)phenyl)-5-isobutylthiophen-2-yl)sulfonyl)carbamoyl)oxy)ethyl pivalate] | – | – | – | – | – | – | – | – | – | –
58.4 | 7.3 | 25 | 29 | 20.1 | 43.2 | 65.7 | 27.4 | 4 | 4 | CC(C)Cc1cc(-c2ccc(Cn3ccnc3C(C)(C)C)c(F)c2)c(S(=O)(=O)NC(=O)c2ccccn2)s1 [Example 27, N-((3-(4-((2-(Tert-Butyl)-1H-imidazol-1-yl)methyl)-3-fluorophenyl)-5-isobutylthio-phen-2-yl)sulfonyl)picolinamide] | – | – | – | – | – | – | – | – | – | –
